ChEMBL document CHEMBL1139533, “Structure-activity relationship studies of a series of antiviral and antibacterial aglycon derivatives of the glycopeptide antibiotics vancomycin, eremomycin, and dechloroeremomycin” (J Med Chem, 2005)
Converted amounts (≈) assume the structure as drawn.

Experiments:
Enterococcus faecalis [1] = test: Minimum inhibitory concentration against glycopeptide resistant enterococci 560 Enterococcus faecalis; assay type: functional
Staphylococcus aureus [2] = test: Minimum inhibitory concentration against glycopeptide intermediate-resistant 3798 Staphylococcus aureus; assay type: functional
Enterococcus faecium [3] = test: Minimum inhibitory concentration against glycopeptide susceptible enterococci 568 Enterococcus faecium; assay type: functional
Staphylococcus aureus [4] = test: Minimum inhibitory concentration against glycopeptide intermediate-resistant 3797 Staphylococcus aureus; assay type: functional
L1210 = test: Cytostatic activity against L1210 cell line; assay type: functional, cell-based; details: Mus musculus
[5] = test system: Human immunodeficiency virus 1; test: Effective concentration against human immunodeficiency virus type 1; assay type: functional, organism-based
C3H/3T3 = test: Minimal cytotoxic concentration to cause an alteration in C3H/3T3 cell line morphology; assay type: functional; details: Mus musculus
Enterococcus faecalis [6] = test: Minimum inhibitory concentration against 559 glycopeptide susceptible enterococci Enterococcus faecalis; assay type: functional
[7] = test system: Staphylococcus haemolyticus; test: Minimum inhibitory concentration against 602 Staphylococcus haemolyticus; assay type: functional
MOLT-4 = test: Cytostatic activity to the compound against Molt4/C8 cell line; assay type: functional, cell-based; details: Homo sapiens
[8] = test system: Staphylococcus epidermidis; test: Minimum inhibitory concentration against 533 Staphylococcus epidermidis; assay type: functional
[9] = test system: Human immunodeficiency virus 2; test: Effective concentration against human immunodeficiency virus type 2; assay type: functional, organism-based
[10] = test system: Moloney murine sarcoma virus; test: Effective concentration against Moloney sarcoma virus; assay type: functional, organism-based, Viruses
Enterococcus faecium [11] = test: Minimum inhibitory concentration against glycopeptide resistant enterococci 569 Enterococcus faecium; assay type: functional
CCRF-CEM = test: Cytostatic activity to the compound against CEM cell line; assay type: functional, cell-based; details: Homo sapiens

| Structure (SMILES) | MIC (Enterococcus faecalis [1]) [µg/mL] | MIC (Staphylococcus aureus [2]) [µg/mL] | MIC (Enterococcus faecium [3]) [µg/mL] | MIC (Staphylococcus aureus [4]) [µg/mL] | IC50 (L1210) [µM] | EC50 [5] [µM] | MCC (C3H/3T3) [µg/mL] | MIC (Enterococcus faecalis [6]) [µg/mL] | MIC [7] [µg/mL] | IC50 (MOLT-4) [µM] | MIC [8] [µg/mL] | EC50 [9] [µM] | EC50 [10] [µM] | MIC (Enterococcus faecium [11]) [µg/mL] | IC50 (CCRF-CEM) [µM] |
| --- | --- | --- | --- | --- | --- | --- | --- | --- | --- | --- | --- | --- | --- | --- | --- |
| NCCCCCCCCCCNC(=O)[C@H]1NC(=O)[C@H]2NC(=O)[C@H](NC(=O)[C@@H]3NC(=O)[C@H](CC(N)=O)NC(=O)[C@H](N)[C@H](O)c4ccc(c(Cl)c4)Oc4cc3cc(c4O)Oc3ccc(cc3)[C@H]2O)c2ccc(O)c(c2)-c2c(O)cc(O)cc21 | > 64 | > 32 | > 64 | > 32 | ≥ 250 | ≥ 25 | 20 | > 64 | > 32 | ≥ 250 | > 32 | ≥ 25 | > 4 | > 64 | 124 |
| CN[C@H](CC(C)C)C(=O)N[C@H]1C(=O)N[C@@H](CC(N)=O)C(=O)N[C@H]2C(=O)N[C@H]3C(=O)N[C@H](C(=O)N[C@H](C(=O)O)c4cc(O)cc(O)c4-c4cc3ccc4O)[C@H](O)c3ccc(cc3)Oc3cc2cc(c3O)Oc2ccc(cc2Cl)[C@H]1O | > 128 | > 64 | 32 (≈ 28.8 µM) | > 64 | > 500 | 50 | > 100 | 16 (≈ 14.4 µM) | 16 (≈ 14.4 µM) | > 500 | 32 (≈ 28.8 µM) | ≥ 250 | > 100 | > 128 | > 500 |
| NC(=O)C[C@@H]1NC(=O)[C@H](N)[C@H](O)c2ccc(cc2)Oc2cc3cc(c2O)Oc2ccc(cc2)[C@@H](O)[C@@H]2NC(=O)[C@H](NC(=O)[C@@H]3NC1=O)c1ccc(O)c(c1)-c1c(O)cc(O)cc1[C@@H](C(=O)O)NC2=O | > 128 | > 128 | > 128 | > 128 |  |  |  | > 128 | > 128 |  | > 128 |  |  | > 128 |  |
| NC(=O)C[C@@H]1NC(=O)[C@H](N)[C@H](O)c2ccc(cc2)Oc2cc3cc(c2O)Oc2ccc(cc2)[C@@H](O)[C@@H]2NC(=O)[C@H](NC(=O)[C@@H]3NC1=O)c1ccc(O)c(c1)-c1c(O)cc(O)cc1[C@@H](C(=O)NCC13CC4CC(CC(C4)C1)C3)NC2=O | > 64 | > 32 | > 64 | > 32 | > 250 | 30 | 100 | > 64 | > 32 | ≥ 250 | > 32 | 25.7 | 2.6 | > 64 | ≥ 250 |
| NC(=O)C[C@@H]1NC(=O)[C@H](N)[C@H](O)c2ccc(c(Cl)c2)Oc2cc3cc(c2O)Oc2ccc(cc2)[C@@H](O)[C@@H]2NC(=O)[C@H](NC(=O)[C@@H]3NC1=O)c1ccc(O)c(c1)-c1c(O)cc(O)cc1[C@@H](C(=O)NCC13CC4CC(CC(C4)C1)C3)NC2=O | > 64 | > 32 | > 64 | > 32 | 175 | 5.5 |  | > 64 | > 32 | > 250 | > 32 | 3.5 |  | > 64 | > 250 |
| CN[C@H](CC(C)C)C(=O)N[C@H]1C(=O)N[C@@H](CC(N)=O)C(=O)N[C@H]2C(=O)N[C@H]3C(=O)N[C@H](C(=O)N[C@H](C(=O)NCCCCCCCCCCN)c4cc(O)cc(O)c4-c4cc3ccc4O)[C@H](O)c3ccc(c(Cl)c3)Oc3cc2cc(c3O)Oc2ccc(cc2Cl)[C@H]1O [listing 1 of 2 here] |  |  |  |  | > 250 | 2.5 |  |  |  | 228 |  | 18.3 | 5 |  | ≥ 250 |
| CN[C@H](CC(C)C)C(=O)N[C@H]1C(=O)N[C@@H](CC(N)=O)C(=O)N[C@H]2C(=O)N[C@H]3C(=O)N[C@H](C(=O)N[C@H](C(=O)NCCCCCCCCCCN)c4cc(O)cc(O)c4-c4cc3ccc4O)[C@H](O)c3ccc(c(Cl)c3)Oc3cc2cc(c3O)Oc2ccc(cc2Cl)[C@H]1O [listing 2 of 2 here] | 16 (≈ 12.3 µM) | 2 (≈ 1.54 µM) | 2 (≈ 1.54 µM) | 2 (≈ 1.54 µM) |  |  | ≥ 20 | 0.5 (≈ 0.385 µM) | 1 (≈ 0.77 µM) |  | 2 (≈ 1.54 µM) |  |  | 16 (≈ 12.3 µM) |  |
| CN[C@H](CC(C)C)C(=O)N[C@H]1C(=O)N[C@@H](CC(N)=O)C(=O)N[C@H]2C(=O)N[C@H]3C(=O)N[C@H](C(=O)N[C@H](C(=O)NC4C5CC6CC(C5)CC4C6)c4cc(O)cc(O)c4-c4cc3ccc4O)[C@H](O)c3ccc(c(Cl)c3)Oc3cc2cc(c3O)Oc2ccc(cc2Cl)[C@H]1O (stereo partly specified) [listing 1 of 2 here] |  |  |  |  | ≥ 250 | 3 |  |  |  | ≥ 250 |  | 8.5 | 13 |  | > 250 |
| CN[C@H](CC(C)C)C(=O)N[C@H]1C(=O)N[C@@H](CC(N)=O)C(=O)N[C@H]2C(=O)N[C@H]3C(=O)N[C@H](C(=O)N[C@H](C(=O)NC4C5CC6CC(C5)CC4C6)c4cc(O)cc(O)c4-c4cc3ccc4O)[C@H](O)c3ccc(c(Cl)c3)Oc3cc2cc(c3O)Oc2ccc(cc2Cl)[C@H]1O (stereo partly specified) [listing 2 of 2 here] | 32 (≈ 25.1 µM) | 4 (≈ 3.13 µM) | 2 (≈ 1.57 µM) | 4 (≈ 3.13 µM) |  |  | 100 | 2 (≈ 1.57 µM) | 4 (≈ 3.13 µM) |  | 4 (≈ 3.13 µM) |  |  | 32 (≈ 25.1 µM) |  |
| CN[C@H](CC(C)C)C(=O)N[C@H]1C(=O)N[C@@H](CC(N)=O)C(=O)N[C@H]2C(=O)N[C@H]3C(=O)N[C@H](C(=O)N[C@H](C(=O)O)c4cc(O)cc(O)c4-c4cc3ccc4O)[C@H](O)c3ccc(c(Cl)c3)Oc3cc2cc(c3O)Oc2ccc(cc2Cl)[C@H]1O [listing 1 of 2 here] |  |  |  |  | > 500 | 65 |  |  |  | > 500 |  | ≥ 250 | 100 |  | > 500 |
| CN[C@H](CC(C)C)C(=O)N[C@H]1C(=O)N[C@@H](CC(N)=O)C(=O)N[C@H]2C(=O)N[C@H]3C(=O)N[C@H](C(=O)N[C@H](C(=O)O)c4cc(O)cc(O)c4-c4cc3ccc4O)[C@H](O)c3ccc(c(Cl)c3)Oc3cc2cc(c3O)Oc2ccc(cc2Cl)[C@H]1O [listing 2 of 2 here] | > 64 | 4 (≈ 3.5 µM) | 4 (≈ 3.5 µM) | 4 (≈ 3.5 µM) |  |  | > 100 | 2 (≈ 1.75 µM) | 8 (≈ 6.99 µM) |  | 4 (≈ 3.5 µM) |  |  | > 64 |  |
| NCCCCCCCCCCNC(=O)[C@H]1NC(=O)[C@H]2NC(=O)[C@H](NC(=O)[C@@H]3NC(=O)[C@H](CC(N)=O)NC(=O)[C@H](N)[C@H](O)c4ccc(cc4)Oc4cc3cc(c4O)Oc3ccc(cc3)[C@H]2O)c2ccc(O)c(c2)-c2c(O)cc(O)cc21 | > 64 | > 32 | > 64 | > 32 | ≥ 250 | > 25 | ≥ 20 | > 64 | > 32 | 144 | > 32 | > 25 | 7.8 | > 64 | 106 |
| CN[C@H](CC(C)C)C(=O)N[C@H]1C(=O)N[C@@H](CC(N)=O)C(=O)N[C@H]2C(=O)N[C@H]3C(=O)N[C@H](C(=O)N[C@H](C(=O)NCC45CC6CC(CC(C6)C4)C5)c4cc(O)cc(O)c4-c4cc3ccc4O)[C@H](O)c3ccc(c(Cl)c3)Oc3cc2cc(c3O)Oc2ccc(cc2Cl)[C@H]1O [listing 1 of 2 here] |  |  |  |  | ≥ 250 | 3 |  |  |  | 72 |  | 9.5 | 10 |  | ≥ 250 |
| CN[C@H](CC(C)C)C(=O)N[C@H]1C(=O)N[C@@H](CC(N)=O)C(=O)N[C@H]2C(=O)N[C@H]3C(=O)N[C@H](C(=O)N[C@H](C(=O)NCC45CC6CC(CC(C6)C4)C5)c4cc(O)cc(O)c4-c4cc3ccc4O)[C@H](O)c3ccc(c(Cl)c3)Oc3cc2cc(c3O)Oc2ccc(cc2Cl)[C@H]1O [listing 2 of 2 here] | 16 (≈ 12.4 µM) | 2 (≈ 1.55 µM) | 2 (≈ 1.55 µM) | 2 (≈ 1.55 µM) |  |  | ≥ 100 | 1 (≈ 0.774 µM) | 2 (≈ 1.55 µM) |  | 2 (≈ 1.55 µM) |  |  | 16 (≈ 12.4 µM) |  |
